Experimental findings from patent publication US20250270212A1, “CHIMERIC COMPOUNDS USEFUL IN TREATING DISEASES” (Padarn Therapeutics, Inc., priority 2021, published 2025) are described below.

One experiment concerns MDA-MB-231. In words: Cellular growth inhibition assay (CellTiter-Glo). The experiment is classed as cell-based. Conditions: Homo sapiens. The procedure:
Example E. Cellular Growth Inhibition Assay
HEK293 (Institute of Cytology Russian Academy of Science), MDA-MB-231 (ATCC, CRM-HTB-26), HCC1395 (ATCC, CRL-2324), HCC1937 (ATCC, CRL-2336), UWB1.289+BRCA1 (ATCC, CRL-2946) were seeded at a density of 500 cells per well in a 384-well clear bottom plate (Greiner Cat #781090) in 45 μl total volume of DMEM (PanEco, Cat #C420) or RPMI (PanEco, Cat #C330) or RPMI/MEBM (Lonza, Cat #CC-3151+CC-4136) with 10% FBS (HyClone, Cat #SV30160.03). Cells were allowed to adhere overnight at 370 C, 5% CO2. 500× compounds solutions in DMSO (Sigma Cat #D2650) were prepared into Cmpnds plate (Diamond Well Plate, Axigen, Cat #P-384-120SQ-C-S) and DMSO only control was included. 1 μl of 500× compounds (Cmpnds plate) was added to 49 μl of culture medium into Dilution plate (Diamond Well Plate, Axigen, Cat #P-384-120SQ-C-S), mixed and then 5 μl of 10× compounds solutions were transferred to cells followed by centrifugation at 100 g for 1 min. Final DMSO concentration was 0.2%. After 3 days of incubation, 10 μl of 1× compounds were added to cells. […]
(In general: ATP-based viability assays read luminescence as a measure of living cells.)

Experiment [1] addresses recombinant PARP1 (AA662-1014) protein (Homo sapiens (Human), UniProt P09874). Kind of experiment: Tracer displacement fluorescence polarization assay. Particulars: displacement of AlexaFluor488 tracer from NAD+-binding site, PARP1 25 nM. As to the method:
Example B. Tracer Displacement Fluorescence Polarization Assays
Displacement of AlexaFlour488 marked tracer from the NAD+-binding site of recombinant PARP1 (AA662-1014) protein (OriGene, Cat #: AR09368PU-L) was measured in vitro using Fluorescence polarization assay. The reaction was carried out in assay buffer (50 mM TRIS-HCl pH 7.4-7.8, 150 mM NaCl, 10 mM MgCl2, 0.001% Triton-X). 2×PARP1 (final concentration 25 nM) was diluted in 1× Assay buffer and 10 μl of the solution per well was added into 384-well Black Non-Treated Reaction plate (Corning, Cat #4511). Plates were centrifuged for 1 min at 200 g. The compounds were prepared in a 384-well Diamond Well Plate (Axygen, Cat #P-384-120SQ-C-S) as 400× solutions in DMSO and were transferred into Reaction plate using the Biomek FX liquid handling system with intermediate dilution down to 10× working solution in assay buffer in a separate 384-well Diamond Well Plate (Axygen, Cat #P-384-120SQ-C-S) (2 μl per well). Plates were centrifuged for 1 min at 200 g and incubated for 15 min at room temperature in the dark. Then 8 μL per well of 2.5× Tracer AlexaFluor488 (final concentration 1 nM) diluted in 1× Assay buffer was added into Reaction plate. 1× Assay buffer was used to make blank samples for instrument calculations. Plates were incubated for 30 minutes at room temperature in the dark. Fluorescence polarization was measured using Microplate Reader (BMG, ClarioStar Plus). The % tracer displacement was used to calculate the IC50 values. The IC50 values are shown in Table A, wherein “A” corresponds to IC50<0.01 μM, “B” corresponds to 0.01 μM≤IC50<0.1 μM, “C” 0.1 μM≤IC50<[…], and “D” corresponds to […].
(In general: Polarisation of emitted light reports the rotation of a fluorescent probe.)

Another experiment addresses recombinant Wee1 protein (Homo sapiens (Human), UniProt P30291). Kind of experiment: Wee1 enzymatic activity inhibition, ADP-Glo luminescence assay. The experiment is classed as biochemical. Particulars: recombinant Wee1, PolyE4Y1 substrate, 1 h room temperature. The procedure: Example A. Primary Assay Used to Determine Potency of Wee1 Enzymatic Activity Inhibition
Compound activity was determined using recombinant Wee1 protein (BPS, Cat #40412) and PolyE4Y1 Substrate (Poly(Glu,Tyr) sodium salt, Sigma, Cat #P0275-25MG) in an in vitro enzymatic reaction. The enzymatic assay used to determine activity was a Luminescence assay using a Microplate Reader (BMG, ClarioStar Plus). The enzymatic reaction was carried out in assay buffer (40 mM TRIS-HCl pH 7.4-7.6, 20 mM MgCl2, 0.05 mM DTT, 0.1 mg/ml BSA, 5 mM MnCl2). The compounds were dispensed on a 384 well Diamond Well Plate (Axigen, Cat #P-384-120SQ-C-S) using the Biomek FX liquid handling system at 100× solutions of compounds in DMSO. 2×Wee1-PolyE4Y1 mix (final concentration 0.85 ng/μl of Wee1 and 0.2 μg/μl of PolyE4Y1) was prepared in 1× Assay buffer and 5.5 μl of mixture per well was added into 384w white Reaction plate with NBS (Corning, Cat #4513). 5.5 μl of PolyE4Y1 substrate w/o Wee1 in 1× buffer was used for negative control. Plates were centrifuged for 1 min at 100 g. Next step the Compounds were added to Reaction plate using Biomek station via following steps: 1 μl of 100× compounds (in DMSO) were mixed thoroughly with 49 μl of 2×10 μM ATP in Assay Buffer, then 5.5 μl of this mixture was added to Reaction plate with 5.5 μl of Wee1-PolyE4Y1 mix. Plates were centrifuged for 1 min at 100 g and incubated for 1 h at room temperature. Next 3 μL of ADP-Glo reagent (Promega, ADP-Glo™ Kinase Assay, Cat #V9102) per well was added. Plates were incubated for 30 minutes at room temperature. Then 6 μL of Kinase detection reagent (Promega, ADP-Glo™ Kinase Assay, Cat #V9102) per well was added and the Luminescence was measured using Microplate Reader. The % inhibition was then used to calculate the IC50 values. The IC50 values are shown in Table A, wherein “A” corresponds to IC50<0.01 μM, “B” corresponds to 0.01 μM≤IC50<0.1 μM, “C” 0.1 μM≤IC50<1 μM, and “D” corresponds to […].
For orientation: ADP-Glo first removes unused ATP, then detects ADP through luciferase.

[2] abbreviates: 120 h, MDA-MB-231, 5 days, read-out: MDA-MB-231 EC50 (μM) 5 days.
[3] abbreviates: 168 h, MDA-MB-231, 7 days, read-out: MDA-MB-231 EC50 (μM) 7 days.
[4] abbreviates: 240 h, MDA-MB-231, 10 days, read-out: MDA-MB-231 EC50 (μM) 10 days.

Like-named read-outs stand apart in the source and are kept apart here. Bounds are passed on as bounds.

recombinant PARP1 (AA662-1014) protein, sequence (P09874 662-1014): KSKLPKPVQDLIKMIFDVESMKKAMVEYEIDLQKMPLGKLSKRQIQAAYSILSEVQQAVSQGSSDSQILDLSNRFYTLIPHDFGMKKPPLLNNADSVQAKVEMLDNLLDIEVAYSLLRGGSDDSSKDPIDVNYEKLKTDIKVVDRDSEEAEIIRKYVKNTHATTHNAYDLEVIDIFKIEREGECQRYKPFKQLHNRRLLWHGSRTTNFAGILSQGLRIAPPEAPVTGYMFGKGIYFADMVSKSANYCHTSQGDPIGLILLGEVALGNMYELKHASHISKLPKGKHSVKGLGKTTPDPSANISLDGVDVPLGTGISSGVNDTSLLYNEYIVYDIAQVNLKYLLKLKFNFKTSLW
recombinant Wee1 protein, sequence (P30291 whole entry): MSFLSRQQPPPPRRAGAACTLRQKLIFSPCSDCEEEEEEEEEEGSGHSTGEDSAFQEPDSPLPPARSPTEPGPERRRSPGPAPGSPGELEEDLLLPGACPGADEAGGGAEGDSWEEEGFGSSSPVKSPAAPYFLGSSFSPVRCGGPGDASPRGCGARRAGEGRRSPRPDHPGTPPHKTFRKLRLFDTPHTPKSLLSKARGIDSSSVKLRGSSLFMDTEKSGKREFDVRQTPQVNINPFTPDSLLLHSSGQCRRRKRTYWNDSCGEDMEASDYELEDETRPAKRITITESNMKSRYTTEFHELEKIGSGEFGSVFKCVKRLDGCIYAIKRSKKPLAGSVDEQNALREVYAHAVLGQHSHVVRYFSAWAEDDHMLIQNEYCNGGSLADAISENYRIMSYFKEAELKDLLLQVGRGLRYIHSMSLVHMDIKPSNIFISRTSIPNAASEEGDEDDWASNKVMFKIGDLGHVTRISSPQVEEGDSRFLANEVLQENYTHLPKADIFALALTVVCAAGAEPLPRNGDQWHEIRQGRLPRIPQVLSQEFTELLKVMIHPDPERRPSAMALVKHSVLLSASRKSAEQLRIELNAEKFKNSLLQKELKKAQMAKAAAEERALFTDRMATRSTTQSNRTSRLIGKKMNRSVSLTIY

As usually defined, the EC50 is the concentration giving half of the maximal effect. On to `C=CCn1c(=O)c2cnc(Nc3ccc(N4CCN(C(=O)c5cc(Cc6n[nH]c(=O)c7ccccc67)ccc5F)CC4)cc3)nc2n1-c1cccc(C(C)(C)O)c1`, for which the EC50 with MDA-MB-231 (setting [2]) is 0.69 µM; in the experiment on MDA-MB-231 (setting [3]), 0.66 µM; with MDA-MB-231 (setting [4]), 0.11 µM; in experiment [1], less than 10 nM.

Consider `C=CCn1c(=O)c2cnc(Nc3ccc(N4CCN(Cc5cc(Cc6n[nH]c(=O)c7ccccc67)ccc5F)CC4)cc3)nc2n1-c1cccc(C(C)(C)O)n1` [Compound 14, 4-[3-({4-[4-({2-Allyl-1-[6-(1-hydroxy-1-methylethyl)pyridin-2-yl]-3-oxo-2,3-dihydro-1H-pyrazolo[3,4-d]pyrimidin-6-yl}amino)phenyl]piperazin-1-yl}methyl)-4-fluorobenzyl]phthalazin-1(2H)-one], for which the concentration for a half-maximal effect (EC50) in experiment [1] lay in the range of 100 to 1000 nM; at recombinant Wee1 protein it was 10 to 100 nM.

For `O=C(c1cc(Cc2n[nH]c(=O)c3ccccc23)ccc1F)N1CCN(c2ccc(Nc3ncc4c(=O)n(CCO)n(-c5ccccn5)c4n3)cc2)CC1` [Compound 15, 4-(4-Fluoro-3-{[4-(4-{[2-(2-hydroxyethyl)-3-oxo-1-pyridin-2-yl-2,3-dihydro-1H-pyrazolo[3,4-d]pyrimidin-6-yl]amino}phenyl)piperazin-1-yl]carbonyl}benzyl)phthalazin-1(2H)-one], the 50% effective concentration (EC50) was less than 10 nM in experiment [1] and 100 to 1000 nM on recombinant Wee1 protein.

Take `C=CCn1c(=O)c2cnc(Nc3ccc(N4CCN(C(=O)c5cc(Cn6c(=O)[nH]c(=O)c7c(F)cccc76)ccc5F)CC4)cc3)nc2n1-c1cccc(C(C)(C)O)n1` [Compound 16, 1-[[3-[4-[4-[[2-Allyl-1-[6-(1-hydroxy-1-methyl-ethyl)-2-pyridyl]-3-oxo-pyrazolo[3,4-d]pyrimidin-6-yl]amino]phenyl]piperazine-1-carbonyl]-4-fluoro-phenyl]methyl]-5-fluoro-quinazoline-2,4-dione]: the EC50 was 0.96 µM with MDA-MB-231 (setting [2]), 0.8 µM with MDA-MB-231 (setting [3]), 0.18 µM in the experiment on MDA-MB-231 (setting [4]) and less than 10 nM in experiment [1].

With `Cn1c(=O)c2cnc(Nc3ccc(N4CCN(C(=O)c5cc(Cn6c(=O)[nH]c(=O)c7c(F)cccc76)ccc5F)CC4)cc3)nc2n1-c1ncccn1` [Compound 29, 5-Fluoro-1-{4-fluoro-3-[(4-{4-[(2-methyl-3-oxo-1-pyrimidin-2-yl-2,3-dihydro-1H-pyrazolo[3,4-d]pyrimidin-6-yl)amino]phenyl}piperazin-1-yl)carbonyl]benzyl}quinazoline-2,4(1H,3H)-dione], the EC50 in experiment [1] is less than 10 nM; at recombinant Wee1 protein, 100 to 1000 nM.

Consider `Cn1c(=O)c2cnc(Nc3ccc(N4CCN(Cc5ccc(-c6[nH]c7cc(F)cc8c7c6CCNC8=O)cc5)CC4)cc3)nc2n1-c1ccccn1` [Compound 36, 8-Fluoro-2-{4-[(4-{4-[(2-methyl-3-oxo-1-pyridin-2-yl-2,3-dihydro-1H-pyrazolo[3,4-d]pyrimidin-6-yl)amino]phenyl}piperazin-1-yl)methyl]phenyl}-1,3,4,5-tetrahydro-6H-azepino[5,4,3-cd]indol-6-one], for which the 50% effective concentration (EC50) was less than 10 nM in experiment [1] and 10 to 100 nM at recombinant Wee1 protein.

With `COCCn1c(=O)c2cnc(Nc3ccc(N4CCN(Cc5ccc(-c6[nH]c7cc(F)cc8c7c6CCNC8=O)cc5)CC4)cc3)nc2n1-c1ccccn1` [Compound 38, 8-Fluoro-2-(4-{[4-(4-{[2-(2-methoxyethyl)-3-oxo-1-pyridin-2-yl-2,3-dihydro-1H-pyrazolo[3,4-d]pyrimidin-6-yl]amino}phenyl)piperazin-1-yl]methyl}phenyl)-1,3,4,5-tetrahydro-6H-azepino[5,4,3-cd]indol-6-one], the figures for the EC50 (in experiment [1]; on recombinant Wee1 protein) were 10 to 100 nM and 100 to 1000 nM, respectively.

On to `Cn1c(=O)c2cnc(Nc3ccc(N4CCN(Cc5ccc(-c6[nH]c7cc(F)cc8c7c6CCNC8=O)cc5)CC4)cc3)nc2n1-c1cccc(C(C)(C)O)n1` [Compound 40, 8-Fluoro-2-[4-({4-[4-({1-[6-(1-hydroxy-1-methylethyl)pyridin-2-yl]-2-methyl-3-oxo-2,3-dihydro-1H-pyrazolo[3,4-d]pyrimidin-6-yl}amino)phenyl]piperazin-1-yl}methyl)phenyl]-1,3,4,5-tetrahydro-6H-azepino[5,4,3-cd]indol-6-one], for which the 50% effective concentration (EC50) (in experiment [1]; at recombinant Wee1 protein) was 10 to 100 nM each time.

On to `C=CCn1c(=O)c2cnc(N3CCN(Cc4ccc(-c5[nH]c6cc(F)cc7c6c5CCNC7=O)cc4)CC3)nc2n1-c1cccc(C(C)(C)O)n1` [Compound 44, 2-{4-[(4-{2-Allyl-1-[6-(1-hydroxy-1-methylethyl)pyridin-2-yl]-3-oxo-2,3-dihydro-1H-pyrazolo[3,4-d]pyrimidin-6-yl}piperazin-1-yl)methyl]phenyl}-8-fluoro-1,3,4,5-tetrahydro-6H-azepino[5,4,3-cd]indol-6-one], for which the EC50 in experiment [1] was less than 10 nM; at recombinant Wee1 protein, not below 1 nM.

As for `Cn1c(=O)c2cnc(Nc3ccc(N4CCC(n5cc6cccc(C(N)=O)c6n5)CC4)cc3)nc2n1-c1ccccn1` [Compound 83], the 50% effective concentration (EC50) (in experiment [1]; at recombinant Wee1 protein) was 10 to 100 nM in each case.

For `Cn1c2nc(Nc3ccc(N4CCC(n5cc6cccc(C(N)=O)c6n5)CC4)cc3)ncc2c(=O)n1-c1ccccn1` [Compound 86], the values for the EC50 (in experiment [1]; at recombinant Wee1 protein) were 10 to 100 nM and 100 to 1000 nM, respectively.

Take `Cn1c(=O)c2cnc(Nc3ccc(N4CCC(c5nc6cccc(C(N)=O)c6[nH]5)CC4)cc3)nc2n1-c1ccccn1` [Compound 95, 2-[1-[4-[[2-methyl-3-oxo-1-(2-pyridyl)pyrazolo[3,4-d]pyrimidin-6-yl]amino]phenyl]-4-piperidyl]-3H-benzimidazole-4-carboxamide]: the half-maximal effective concentration (EC50) (in experiment [1]; on recombinant Wee1 protein) was 10 to 100 nM each time.

As to `Cn1c2nc(Nc3ccc(N4CCCC(c5nc6cccc(C(N)=O)c6[nH]5)C4)cc3)ncc2c(=O)n1-c1ccccn1` (stereo not drawn) [Compound 97], the concentration giving a half-maximal response (EC50) in experiment [1] lay in the range of 10 to 100 nM; on recombinant Wee1 protein, 100 to 1000 nM.
